In ChEMBL document CHEMBL1153009, “Synthesis and evaluation of structurally constrained imidazolidin derivatives as potent dipeptidyl peptidase IV inhibitors” (Eur J Med Chem, 2009):
pIC50: −log10 of the molar value.

How the values were obtained:
Dipeptidyl peptidase 2 = Dipeptidyl peptidase 2 (Homo sapiens, UniProt Q9UHL4); assay: Inhibition of human recombinant DPP7 expressed in baculovirus-infected Sf9 cells by fluorescence plate reader method
Dipeptidyl peptidase 9 = Dipeptidyl peptidase 9 (Homo sapiens, UniProt Q86TI2)
Chain of Dipeptidyl peptidase 9 (Q86TI2 whole entry): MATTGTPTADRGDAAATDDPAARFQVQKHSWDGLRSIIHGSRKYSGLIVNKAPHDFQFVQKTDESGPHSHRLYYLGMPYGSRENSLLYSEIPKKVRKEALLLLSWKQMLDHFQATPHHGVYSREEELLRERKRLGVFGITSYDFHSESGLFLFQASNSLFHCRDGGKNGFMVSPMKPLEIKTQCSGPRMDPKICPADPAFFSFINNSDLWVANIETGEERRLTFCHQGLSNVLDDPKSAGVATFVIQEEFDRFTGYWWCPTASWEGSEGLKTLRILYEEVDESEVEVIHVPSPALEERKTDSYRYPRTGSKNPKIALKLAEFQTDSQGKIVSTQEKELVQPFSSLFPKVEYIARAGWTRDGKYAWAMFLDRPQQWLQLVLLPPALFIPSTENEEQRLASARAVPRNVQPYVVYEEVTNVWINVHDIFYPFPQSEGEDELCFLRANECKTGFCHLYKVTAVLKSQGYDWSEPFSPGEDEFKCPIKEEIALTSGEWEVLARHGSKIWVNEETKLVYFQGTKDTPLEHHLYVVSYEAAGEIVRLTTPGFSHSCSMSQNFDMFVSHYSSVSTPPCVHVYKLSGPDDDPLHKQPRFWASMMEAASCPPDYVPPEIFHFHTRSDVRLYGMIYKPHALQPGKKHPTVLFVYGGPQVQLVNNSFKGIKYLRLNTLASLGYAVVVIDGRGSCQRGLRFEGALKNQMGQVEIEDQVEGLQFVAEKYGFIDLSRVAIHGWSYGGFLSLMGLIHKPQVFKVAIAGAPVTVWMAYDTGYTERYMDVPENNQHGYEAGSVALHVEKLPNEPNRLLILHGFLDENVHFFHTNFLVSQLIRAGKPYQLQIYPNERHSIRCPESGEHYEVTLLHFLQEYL

For `COc1ccc(N2CCN(CCNCC(=O)N3CCCC3C#N)C2=O)cc1OC` (single isomer, unassigned), the pIC50 (Dipeptidyl peptidase 2) was less than 4.00 and the pIC50 (Dipeptidyl peptidase 9) was less than 4.00.
